Results: patent US10206937B2, “Boronic acid derivatives and therapeutic uses thereof” (Qpex Biopharma, Inc., priority 2014, dated 2019)
≈ marks a conversion by molar mass, not a printed value. Read-outs that look alike come from different tables or passages of the source.

Key:
[1] = molecular target: T1, purified class A, C and D enzymes (UniProt Q9F663); type: biochemical; details: read-out: Ki (KPC-2, NCF); purified KPC-2; nitrocefin reporter substrate
T1 construct: rows headed: Ki (KPC-2, NCF); other: purified KPC-2; nitrocefin reporter substrate

VIM-1 = molecular target: T2, VIM-1 (Pseudomonas aeruginosa, UniProt A0A0F7KYQ8); assay: biochemical; details: cleavage of nitrocefin (200 uM) by VIM-1 supernatant
T2 construct: made in house; host or cells: ECM6711 strain carrying pUCP24-VIM-1 plasmid; culture supernatant used unpurified

ECM6703 (pUCP24-NDM-1) = type: cell-based, E. coli
NDM-1 [2] = molecular target: T3, NDM-1 (Klebsiella pneumoniae, UniProt C7C422); assay: biochemical
[3] = tested on: clinical isolates expressing class A, B and D carbapenemases; assay: Carbapenem potentiation by Compound 1, whole panel of clinical isolates (MIC); type: cell-based; details: Compound 1 at fixed 5 μg/ml in the growth media; all the strains
From the text: The results are present in Table 8.

NDM-1 [4] = molecular target: T3, NDM-1; assay: Inhibition of purified class B carbapenemase NDM-1 (Ki, imipenem substrate); type: biochemical
ECM6711 (pUCP24-VIM-1) = type: cell-based, E. coli
KP1054 (VIM-1, SHV-11) = assay: Carbapenem potentiation against clinical isolate (MIC); type: cell-based, Klebsiella pneumoniae; details: antibiotic alone
[5] = tested on: strains of Enterobacteriaceae overexpressing various carbapenemases (class A and B); assay: organism not typed; type: cell-based
From the text: Several strains simultaneously expressing both class A and class B carbapenemases, which were constructed using conjugation, were also included in the panel.

[6] = tested on: KP1064 (KPC-2, SHV-11, TEM-1); assay: Carbapenem potentiation against clinical isolate (MIC); type: cell-based, Klebsiella pneumoniae; details: antibiotic alone
[7] = tested on: KP1086 (TEM, SHV, CTX-M-15, OXA-48); assay: as above; type: cell-based, Klebsiella pneumoniae; details: antibiotic alone
[8] = tested on: KP1084 (KPC-3, SHV-11, TEM-1); assay: as above; type: cell-based, Klebsiella pneumoniae; details: antibiotic alone
[9] = tested on: EC1064 (NDM-1, CMY-6, CTX-M-15); assay: as above; type: cell-based, Escherichia coli; details: antibiotic alone
[10] = tested on: KP1074 (KPC-3, SHV-11, TEM); assay: as above; type: cell-based, Klebsiella pneumoniae; details: antibiotic alone
[11] = tested on: KP1087 (KPC-2, CTX-M-15, SHV-11, TEM-1); assay: as above; type: cell-based; details: antibiotic alone
KP1014 (VIM-1) = assay: as above; type: cell-based, Klebsiella pneumoniae; details: antibiotic alone
ECM6704 (pUCP24) = assay: microbe, parasite or virus in culture; type: cell-based, E. coli; details: Escherichia coli, read-out: Imipenem MIC Alone
EA1019 (SHV-5, VIM-1) = assay: Carbapenem potentiation against clinical isolate (MIC); type: cell-based, Enterobacter aerogenes
[12] = tested on: KP1004 (KPC-2, TEM-1, SHV-11); assay: as above; type: cell-based, Klebsiella pneumoniae; details: antibiotic alone
[13] = tested on: KP1081 (NDM-1, TEM-1, SHV-11, CMY-6, CTX-M-15); assay: as above; type: cell-based; details: antibiotic alone
AB1144 (NDM-1) = assay: as above; type: cell-based, Acinetobacter baumannii

T3 sequence (C7C422 29-270, looked up, species assumed): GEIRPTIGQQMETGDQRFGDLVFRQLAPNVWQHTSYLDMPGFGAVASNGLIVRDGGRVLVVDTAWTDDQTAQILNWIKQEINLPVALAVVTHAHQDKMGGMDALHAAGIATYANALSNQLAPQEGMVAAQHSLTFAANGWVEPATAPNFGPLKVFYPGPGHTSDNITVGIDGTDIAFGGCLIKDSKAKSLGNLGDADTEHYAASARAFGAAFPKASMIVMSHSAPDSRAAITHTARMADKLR

O=C(O)c1cccc2c1OB(O)[C@@H](Sc1nncs1)C2 [Compound 1, (R)-3-(1,3,4-thiadiazol-2-ylthio)-2-hydroxy-3,4-dihydro-2H-benzo[e][1,2]oxaborinine-8-carboxylic acid]
Ki [1]: 100 to 1000 nM
IC50 (VIM-1): < 1000 nM
imipenem MIC in the presence of Compound 1 (ECM6703 (pUCP24-NDM-1); NDM-1 producing strain, Compound 1 at fixed 4 μg/ml or 8 μg/ml): decreased to the level of the strain containing empty vector
Ki (NDM-1 [2]; Ki, Imipenem): 10 to 100 nM
Ki (NDM-1 [2]; cleavage of biapenem (100 uM) by NDM-1, read-out: Ki, Biapenem): 10 to 100 nM
Ki (NDM-1 [2]; cleavage of meropenem (100 uM) by NDM-1, read-out: Ki, Meropenem): 10 to 100 nM
Ki (NDM-1 [2]; cleavage of tebipenem (100 uM) by NDM-1, read-out: Ki, Tebipenem): > 100 nM
carbapenem MIC (biapenem, doripenem, imipenem, meropenem) [3]: significantly reduced
Ki (NDM-1 [4]): 10 to 100 nM
imipenem MIC in the presence of Compound 1 (ECM6711 (pUCP24-VIM-1); VIM-1 producing strain, Compound 1 at fixed 4 μg/ml or 8 μg/ml): decreased to the level of the strain containing empty vector

C[C@@H](O)[C@H]1C(=O)N2C(C(=O)O)=C(SCCN=CN)C[C@H]12 [Imipenem]
Carbapenem MIC Alone (KP1054 (VIM-1, SHV-11)): Y (MIC of 1 μg/mL to 10 μg/mL)
MIC [5]: 1 to 10 µg/mL (≈ 3.34 to 33.4 µM)
MIC ([5]; Klebsiella aerogenes): > 10 µg/mL
Carbapenem MIC Alone [6]: Z (MIC of greater than 10 μg/mL)
Imipenem MIC Alone (ECM6703 (pUCP24-NDM-1)): Y (key: X: MIC of less than 1.0 μg/mL; Y: MIC of 1.0 μ/mL or above)
Carbapenem MIC Alone [7]: Z (MIC of greater than 10 μg/mL)
Carbapenem MIC Alone [8]: Z (MIC of greater than 10 μg/mL)
Carbapenem MIC Alone [9]: Z (MIC of greater than 10 μg/mL)
Carbapenem MIC Alone [10]: Z (MIC of greater than 10 μg/mL)
Carbapenem MIC Alone [11]: Y (MIC of 1 μg/mL to 10 μg/mL)
Carbapenem MIC Alone (KP1014 (VIM-1)): Z (MIC of greater than 10 μg/mL)
MIC (ECM6704 (pUCP24)): < 1 µg/mL
Carbapenem MIC Alone (EA1019 (SHV-5, VIM-1)): Z (key: X: MIC of less than 1 μg/mL; Y: MIC of 1 μg/mL to 10 μg/mL; Z: MIC of greater than 10 μg/mL)
Carbapenem MIC Alone [12]: Z (MIC of greater than 10 μg/mL)
Imipenem MIC Alone (ECM6711 (pUCP24-VIM-1)): Y (key: X: MIC of less than 1.0 μg/mL; Y: MIC of 1.0 μ/mL or above)
Carbapenem MIC Alone [13]: Z (MIC of greater than 10 μg/mL)
Carbapenem MIC Alone (AB1144 (NDM-1)): Z (key: X: MIC of less than 1 μg/mL; Y: MIC of 1 μg/mL to 10 μg/mL; Z: MIC of greater than 10 μg/mL)

C[C@@H](O)[C@H]1C(=O)N2C(C(=O)O)=C(S[C@@H]3CN[C@H](C(=O)N(C)C)C3)[C@H](C)[C@H]12 [Meropenem, reference compound]
Carbapenem MIC Alone (KP1054 (VIM-1, SHV-11)): Z (MIC of greater than 10 μg/mL)
MIC ([5]; Enterobacter cloacae, strain ECL1026, Enterobacter cloacae (KPC), carbapenem alone or + Compound 14 at fixed 4 μg/ml, read-out: MIC): 1 to 10 µg/mL
MIC ([5]; Enterobacter cloacae, strain ECL1036, Enterobacter cloacae (KPC), carbapenem alone or + Compound 14 at fixed 4 μg/ml, read-out: MIC): 1 to 10 µg/mL
MIC ([5]; Enterobacter cloacae, strain ECL1045, Enterobacter cloacae (VIM-1), carbapenem alone or + Compound 14 at fixed 4 μg/ml, read-out: MIC): 1 to 10 µg/mL
MIC ([5]; Enterobacter cloacae, strain ECL1055, Enterobacter cloacae (KPC), carbapenem alone or + Compound 14 at fixed 4 μg/ml, read-out: MIC): 1 to 10 µg/mL
MIC ([5]; Enterobacter cloacae, strain ECL1057, Enterobacter cloacae (NDM-1, TEM-1, CTX-M-15), carbapenem alone or + Compound 14 at fixed 4 μg/ml, read-out: MIC): > 10 µg/mL
MIC ([5]; Enterobacter cloacae, strain ECL1082, Enterobacter cloacae (VIM-1), carbapenem alone or + Compound 14 at fixed 4 μg/ml, read-out: MIC): 1 to 10 µg/mL
MIC ([5]; Enterobacter cloacae, strain ECLM1013, Enterobacter cloacae (NDM, KPC), carbapenem alone or + Compound 14 at fixed 4 μg/ml, read-out: MIC): > 10 µg/mL
MIC ([5]; Enterobacter cloacae, strain ECLM1014, Enterobacter cloacae (NDM, KPC), carbapenem alone or + Compound 14 at fixed 4 μg/ml, read-out: MIC): > 10 µg/mL
MIC ([5]; Enterobacter cloacae, strain ECLM1015, Enterobacter cloacae (NDM, KPC), carbapenem alone or + Compound 14 at fixed 4 μg/ml, read-out: MIC): > 10 µg/mL
MIC ([5]; Enterobacter cloacae, strain ECLM1016, Enterobacter cloacae (NDM, KPC), carbapenem alone or + Compound 14 at fixed 4 μg/ml, read-out: MIC): > 10 µg/mL
MIC ([5]; Enterobacter cloacae, strain ECLM1017, Enterobacter cloacae (VIM, KPC), carbapenem alone or + Compound 14 at fixed 4 μg/ml, read-out: MIC): > 10 µg/mL
MIC ([5]; Enterobacter cloacae, strain ECLM1018, Enterobacter cloacae (VIM, KPC), carbapenem alone or + Compound 14 at fixed 4 μg/ml, read-out: MIC): > 10 µg/mL
MIC ([5]; Enterobacter cloacae, strain ECLM1019, Enterobacter cloacae (VIM, KPC), carbapenem alone or + Compound 14 at fixed 4 μg/ml, read-out: MIC): > 10 µg/mL
MIC ([5]; Escherichia coli, strain EC1064, Escherichia coli (NDM-1, CMY-6, CTX-M-15), carbapenem alone or + Compound 14 at fixed 4 μg/ml, read-out: MIC): > 10 µg/mL
MIC ([5]; Escherichia coli, strain EC1068, Escherichia coli (VIM-1), carbapenem alone or + Compound 14 at fixed 4 μg/ml, read-out: MIC): > 10 µg/mL
MIC ([5]; Klebsiella aerogenes, strain EA1019, Enterobacter aerogenes (SHV-5, VIM-1), carbapenem alone or + Compound 14 at fixed 4 μg/ml, read-out: MIC): > 10 µg/mL
MIC ([5]; Klebsiella pneumoniae, strain KP1004, Klebsiella pneumoniae (KPC TEM SHV), carbapenem alone or + Compound 14 at fixed 4 μg/ml, read-out: MIC): > 10 µg/mL
MIC ([5]; Klebsiella pneumoniae, strain KP1014, Klebsiella pneumoniae (Vim-1, TEM, SHV), carbapenem alone or + Compound 14 at fixed 4 μg/ml, read-out: MIC): > 10 µg/mL
MIC ([5]; Klebsiella pneumoniae, strain KP1061, Klebsiella pneumoniae (KPC TEM SHV), carbapenem alone or + Compound 14 at fixed 4 μg/ml, read-out: MIC): 1 to 10 µg/mL
MIC ([5]; Klebsiella pneumoniae, strain KP1064, Klebsiella pneumoniae (KPC TEM SHV), carbapenem alone or + Compound 14 at fixed 4 μg/ml, read-out: MIC): > 10 µg/mL
MIC ([5]; Klebsiella pneumoniae, strain KP1070, Klebsiella pneumoniae (KPC TEM SHV), carbapenem alone or + Compound 14 at fixed 4 μg/ml, read-out: MIC): > 10 µg/mL
MIC ([5]; Klebsiella pneumoniae, strain KP1084, Klebsiella pneumoniae (KPC-3, SHV-11, TEM-1), carbapenem alone or + Compound 14 at fixed 4 μg/ml, read-out: MIC): > 10 µg/mL
MIC ([5]; Klebsiella pneumoniae, strain KP1097, Klebsiella pneumoniae (IMP-1 SHV), carbapenem alone or + Compound 14 at fixed 4 μg/ml, read-out: MIC): > 10 µg/mL
MIC ([5]; Klebsiella pneumoniae, strain KP1098, Klebsiella pneumoniae (IMP-26 TEM SHV), carbapenem alone or + Compound 14 at fixed 4 μg/ml, read-out: MIC): > 10 µg/mL
MIC ([5]; Klebsiella pneumoniae, strain KPM1097, Klebsiella pneumoniae (NDM, KPC), carbapenem alone or + Compound 14 at fixed 4 μg/ml, read-out: MIC): > 10 µg/mL
MIC ([5]; Klebsiella pneumoniae, strain KPM1099, Klebsiella pneumoniae (NDM, KPC), carbapenem alone or + Compound 14 at fixed 4 μg/ml, read-out: MIC): > 10 µg/mL
MIC ([5]; Klebsiella pneumoniae, strain KPM1107, Klebsiella pneumoniae (NDM, KPC), carbapenem alone or + Compound 14 at fixed 4 μg/ml, read-out: MIC): > 10 µg/mL
MIC ([5]; Klebsiella pneumoniae, strain KPM1108, Klebsiella pneumoniae (NDM, KPC), carbapenem alone or + Compound 14 at fixed 4 μg/ml, read-out: MIC): > 10 µg/mL
MIC ([5]; Klebsiella pneumoniae, strain KPM1123, Klebsiella pneumoniae (KPC-2 TEM SHV), carbapenem alone or + Compound 14 at fixed 4 μg/ml, read-out: MIC): > 10 µg/mL
MIC ([5]; Klebsiella pneumoniae, strain KPM1344, Klebsiella pneumoniae (VIM-1), carbapenem alone or + Compound 14 at fixed 4 μg/ml, read-out: MIC): > 10 µg/mL
MIC ([5]; Klebsiella pneumoniae, strain KPM1346, Klebsiella pneumoniae (NDM-1 TEM SHV CTX-M-15 CMY), carbapenem alone or + Compound 14 at fixed 4 μg/ml, read-out: MIC): > 10 µg/mL
MIC ([5]; Klebsiella pneumoniae, strain KPM1347, Klebsiella pneumoniae (NDM-1 SHV CTX-M-15), carbapenem alone or + Compound 14 at fixed 4 μg/ml, read-out: MIC): > 10 µg/mL
MIC ([5]; strain EC1065, Escherichai coli (IMP-1 CMY-2), carbapenem alone or + Compound 14 at fixed 4 μg/ml, read-out: MIC): 1 to 10 µg/mL
Carbapenem MIC Alone [6]: Z (MIC of greater than 10 μg/mL)
Carbapenem MIC Alone [7]: Z (MIC of greater than 10 μg/mL)
Carbapenem MIC Alone [8]: Z (MIC of greater than 10 μg/mL)
Carbapenem MIC Alone [9]: Z (MIC of greater than 10 μg/mL)
Carbapenem MIC Alone [10]: Z (MIC of greater than 10 μg/mL)
Carbapenem MIC Alone [11]: Z (MIC of greater than 10 μg/mL)
Carbapenem MIC Alone (KP1014 (VIM-1)): Y (MIC of 1 μg/mL to 10 μg/mL)
Carbapenem MIC Alone (EA1019 (SHV-5, VIM-1); EA1019, antibiotic alone): Z (MIC of greater than 10 μg/mL)
Carbapenem MIC Alone [12]: Y (MIC of 1 μg/mL to 10 μg/mL)
Carbapenem MIC Alone [13]: Z (MIC of greater than 10 μg/mL)
Carbapenem MIC Alone (AB1144 (NDM-1); AB1144, antibiotic alone): Z (MIC of greater than 10 μg/mL)
